Test results: ChEMBL document CHEMBL1143445, “Highly cytotoxic and neurotoxic acetogenins of the Annonaceae: new putative biological targets of squamocin detected by activity-based protein profiling” (Bioorg Med Chem Lett, 2008)
Calls of active or inactive are those of the source. The rule behind the calls is not given here.

Assays:
[1] = Drug uptake in mitochondria of human HeLa cells assessed as intracellular localization after 6 hrs; assay type: ADME
[2] = target: COP9 signalosome complex subunit 7b (Homo sapiens) (UniProt Q9H9Q2); assay: Binding affinity to COP9 signalosome complex subunit 7b in human Jurkat cells at 10 uM after 24 hrs by 2D electrophoresis; assay type: cell-based
[3] = target: T1, Glutathione S-transferase omega-1 (Homo sapiens) (UniProt P78417); assay: Binding affinity to glutathione transferase omega 1 in human Jurkat cells at 10 uM after 24 hrs by 2D electrophoresis; assay type: cell-based
T1 sequence (whole entry): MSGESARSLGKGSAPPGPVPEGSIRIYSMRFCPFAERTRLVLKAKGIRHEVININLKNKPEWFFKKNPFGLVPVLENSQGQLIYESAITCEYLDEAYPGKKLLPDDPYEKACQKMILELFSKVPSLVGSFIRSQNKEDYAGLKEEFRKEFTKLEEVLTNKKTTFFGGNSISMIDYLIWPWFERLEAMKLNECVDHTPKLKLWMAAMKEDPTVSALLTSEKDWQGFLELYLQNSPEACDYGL

[4] = target: Succinate dehydrogenase [ubiquinone] flavoprotein subunit, mitochondrial (Homo sapiens) (UniProt P31040); assay: Binding affinity to flavoprotein subunit of succinate dehydrogenase in human Jurkat cells at 10 uM after 24 hrs by 2D electrophoresis; assay type: cell-based
[5] = target: Protein disulfide-isomerase (Homo sapiens) (UniProt P07237); assay: Binding affinity to disulfide isomerase in human Jurkat cells at 10 uM after 24 hrs by 2D electrophoresis; assay type: cell-based
Sequence of Protein disulfide-isomerase (Homo sapiens) (P07237 18-508 limits assumed): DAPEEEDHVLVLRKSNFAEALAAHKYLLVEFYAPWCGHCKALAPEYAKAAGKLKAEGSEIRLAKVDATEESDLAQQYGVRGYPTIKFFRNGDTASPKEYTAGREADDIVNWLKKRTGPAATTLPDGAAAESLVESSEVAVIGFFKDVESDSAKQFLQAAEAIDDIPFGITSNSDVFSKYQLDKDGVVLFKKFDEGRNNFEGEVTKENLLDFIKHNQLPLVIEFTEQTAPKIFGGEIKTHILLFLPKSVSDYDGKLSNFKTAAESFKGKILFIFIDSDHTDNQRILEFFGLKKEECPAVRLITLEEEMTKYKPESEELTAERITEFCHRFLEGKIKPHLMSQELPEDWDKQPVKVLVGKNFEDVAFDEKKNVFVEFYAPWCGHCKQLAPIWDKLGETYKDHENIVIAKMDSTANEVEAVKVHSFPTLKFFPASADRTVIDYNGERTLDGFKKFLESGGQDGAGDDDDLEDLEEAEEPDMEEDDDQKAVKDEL

Sequence of Succinate dehydrogenase [ubiquinone] flavoprotein subunit, mitochondrial (Homo sapiens) (P31040 whole entry): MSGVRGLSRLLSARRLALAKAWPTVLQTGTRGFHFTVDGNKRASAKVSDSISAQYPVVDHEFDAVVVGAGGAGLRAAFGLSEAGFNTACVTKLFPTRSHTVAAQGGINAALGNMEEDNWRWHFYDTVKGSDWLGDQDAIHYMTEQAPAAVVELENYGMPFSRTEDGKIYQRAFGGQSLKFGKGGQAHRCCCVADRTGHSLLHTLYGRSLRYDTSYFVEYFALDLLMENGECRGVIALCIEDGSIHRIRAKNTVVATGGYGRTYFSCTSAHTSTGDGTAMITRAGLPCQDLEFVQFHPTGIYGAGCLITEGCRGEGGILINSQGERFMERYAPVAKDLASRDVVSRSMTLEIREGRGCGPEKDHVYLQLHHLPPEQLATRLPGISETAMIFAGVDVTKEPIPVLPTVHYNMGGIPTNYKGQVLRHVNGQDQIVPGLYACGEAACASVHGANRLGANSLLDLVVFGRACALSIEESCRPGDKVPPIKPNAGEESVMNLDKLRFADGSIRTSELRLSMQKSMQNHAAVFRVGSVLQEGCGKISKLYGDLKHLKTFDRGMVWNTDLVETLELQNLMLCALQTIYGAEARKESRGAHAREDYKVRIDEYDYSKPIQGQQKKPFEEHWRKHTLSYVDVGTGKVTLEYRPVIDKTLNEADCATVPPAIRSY
Sequence of COP9 signalosome complex subunit 7b (Homo sapiens) (Q9H9Q2 whole entry, one chain of several): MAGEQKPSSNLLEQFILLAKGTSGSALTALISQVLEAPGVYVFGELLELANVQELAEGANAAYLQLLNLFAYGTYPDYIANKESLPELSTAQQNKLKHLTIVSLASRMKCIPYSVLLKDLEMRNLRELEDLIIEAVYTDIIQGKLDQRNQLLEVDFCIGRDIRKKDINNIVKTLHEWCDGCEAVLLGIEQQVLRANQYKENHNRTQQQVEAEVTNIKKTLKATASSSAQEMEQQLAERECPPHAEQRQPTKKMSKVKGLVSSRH

SMILES | Activity [1] [%] | Activity [2] | Activity [3] | Activity [4] | Activity [5]
CCCCCC[C@H](O)CCC[C@H](O)[C@H]1CC[C@@H]([C@H]2CC[C@@H]([C@H](O)CCCCCCCCCCCn3cc(COc4ccc5c(c4)Oc4cc(O)ccc4C54OC(=O)c5ccccc54)nn3)O2)O1 (stereo partly specified) | 62 |  |  |  | 
CCCCCC[C@H](CCC[C@H](O)[C@H]1CC[C@@H]([C@H]2CC[C@@H]([C@H](O)CCCCCCCCCCCC3=C[C@H](C)OC3=O)O2)O1)n1cc(CCc2ccc3c(c2)Oc2cc(O)ccc2C32OC(=O)c3ccccc32)nn1 (stereo partly specified) | 71 | Active | Active | Active | Active
